By pIC50 is commonly meant the negative decadic logarithm of the IC50, by convention in mol/L. A word on the IC50: it is the midpoint of a concentration-inhibition curve. By Km is commonly meant the concentration of substrate that gives half-maximal velocity.

One test concerns the target PDE10 from pig striatum (Sus scrofa, UniProt A0A287B941). The test is described as follows: Inhibition of PDE10 from pig striatum ([3H]-cAMP SPA). Format: biochemical.
The target in another test is T1, human recombinant PDE10A (Homo sapiens, UniProt Q9Y233).
T1 construct: made in house; host or cells: SF21 insect cells (baculovirus)
The experiment in a line: Inhibition of PDE10, human recombinant PDE10A ([3H]-cAMP SPA). Format: biochemical. Conditions: Table 7; read-out: Human PDE10 (IC50 nM).

The conditions of test [1]: rats; Kostowski et al. 1976; cited from earlier work.
For test [2] the following is noted: rats; Kostowski et al. 1976; cited from earlier work. The source holds these as a separate data set.
The target in test [3] is PDE10 from guinea pig striatum (Cavia porcellus, UniProt A0A286XN47). The experiment in a line: Inhibition of PDE10 from guinea pig striatum ([3H]-cAMP SPA). Format: biochemical. Conditions: Method B. The protocol: (§1) The phosphodiesterase isoenzyme 10 (PDE10) activity was determined in preparations of rat, pig and guinea pig striatum respectively. Striatum from male Wistar rats (180-200 g), male hybrid pigs (150 kg) and male guinea pigs (CRL (HA), 500 g) respectively were collected and frozen at −70° C. At the day of preparation 0.5 g striatum was homogenized in 10 ml 50 mM Tris/Mg-buffer at 4° C. and centrifuged for one hour at 100000 g. The supernatant is called the cytosolic fraction and was removed and stored on ice. The pellet was resuspended in the same buffer, but containing 1% Triton and incubated for 45 min at 4° C. Both fractions were independently applied onto a 5 ml Hi Trap™ QHP column at the Akta-FPLC. After washing the columns the bound PDE protein was eluted with an increasing sodium chloride gradient (0 mM-500 mM sodium chloride) in 50 mM Tris/Mg-buffer at 4° C. for the cytosolic fraction and in the presence of 1% Triton for the membrane fraction. […] The fractions with PDE10-activity were pooled and frozen in aliquots until use at −20° C. PDE10 activity was determined in a one step procedure in microtiterplates. […] Nonspecific activity was tested without the enzyme. […] One hour later the mixture was measured in a liquid scintillation counter for microtiterplates (Microbeta Trilux). […]

For test [4] the following is noted: rats; Kostowski et al. 1976; cited from earlier work. The source holds these as a separate data set.
In test [5] the target is Phosphodiesterase (PDE) 10A (Homo sapiens, UniProt Q9Y233). Conditions: Soderling et al. 1999; cited from earlier work.
The next test has as its target T2, PDE10 from rat striatum (Rattus norvegicus, UniProt Q9QYJ6).
T2 construct: from tissue; host or cells: rat (Wistar) striatum, FPLC fractions
T2 sequence (Q9QYJ6 1-794): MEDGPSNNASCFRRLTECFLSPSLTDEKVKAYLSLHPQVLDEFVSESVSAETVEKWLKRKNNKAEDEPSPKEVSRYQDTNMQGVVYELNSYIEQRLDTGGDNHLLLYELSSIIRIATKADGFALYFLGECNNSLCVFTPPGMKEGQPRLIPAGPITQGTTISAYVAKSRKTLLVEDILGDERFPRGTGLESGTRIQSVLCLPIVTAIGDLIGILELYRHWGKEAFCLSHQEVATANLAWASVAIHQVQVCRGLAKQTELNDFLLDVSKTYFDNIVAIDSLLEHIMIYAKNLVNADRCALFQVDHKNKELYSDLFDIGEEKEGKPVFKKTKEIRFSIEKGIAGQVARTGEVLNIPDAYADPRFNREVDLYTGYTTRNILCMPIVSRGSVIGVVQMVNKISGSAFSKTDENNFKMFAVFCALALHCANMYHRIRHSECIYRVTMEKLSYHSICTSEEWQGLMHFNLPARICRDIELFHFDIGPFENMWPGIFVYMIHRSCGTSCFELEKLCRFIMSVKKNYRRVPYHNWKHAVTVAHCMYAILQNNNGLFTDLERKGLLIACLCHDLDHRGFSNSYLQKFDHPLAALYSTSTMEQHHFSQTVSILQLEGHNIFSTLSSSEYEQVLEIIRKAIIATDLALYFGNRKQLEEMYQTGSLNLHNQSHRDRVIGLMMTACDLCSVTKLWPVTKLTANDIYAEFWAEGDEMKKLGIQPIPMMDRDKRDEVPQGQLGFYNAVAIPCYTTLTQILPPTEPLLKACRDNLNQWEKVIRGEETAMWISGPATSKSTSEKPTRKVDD
The experiment in a line: Inhibition of PDE10 from rat striatum ([3H]-cAMP SPA). Conditions: Method B, read-out: Km-value for the substrate. Format: biochemical. As to the method:
as §1

Where [6] appears, read: Table 7, read-out: PDE10 pig IC50.

pIC50: −log10 of the molar value. Where two headings read alike, the source gives them in different places.

T1 sequence (Q9Y233 1-779 isoform Q9Y233-1): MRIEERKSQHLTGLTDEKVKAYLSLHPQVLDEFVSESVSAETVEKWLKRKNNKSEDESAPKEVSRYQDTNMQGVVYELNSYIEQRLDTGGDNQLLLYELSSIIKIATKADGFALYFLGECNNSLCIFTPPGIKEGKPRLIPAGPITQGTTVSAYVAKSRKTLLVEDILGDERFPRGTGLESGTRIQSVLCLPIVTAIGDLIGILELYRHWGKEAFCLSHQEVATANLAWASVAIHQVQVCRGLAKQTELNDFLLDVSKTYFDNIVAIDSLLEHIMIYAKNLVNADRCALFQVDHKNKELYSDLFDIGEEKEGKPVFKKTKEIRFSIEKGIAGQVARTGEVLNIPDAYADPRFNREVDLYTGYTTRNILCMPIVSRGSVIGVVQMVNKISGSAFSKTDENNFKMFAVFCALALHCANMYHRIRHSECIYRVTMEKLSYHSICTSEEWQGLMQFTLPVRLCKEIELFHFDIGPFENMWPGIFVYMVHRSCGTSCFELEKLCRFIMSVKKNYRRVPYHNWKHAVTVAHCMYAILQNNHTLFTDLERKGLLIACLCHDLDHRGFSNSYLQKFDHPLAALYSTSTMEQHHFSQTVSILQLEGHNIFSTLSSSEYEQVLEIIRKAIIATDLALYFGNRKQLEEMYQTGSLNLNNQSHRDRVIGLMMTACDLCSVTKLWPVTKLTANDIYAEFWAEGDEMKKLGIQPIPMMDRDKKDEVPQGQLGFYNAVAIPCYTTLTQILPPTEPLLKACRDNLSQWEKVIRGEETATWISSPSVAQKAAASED
Phosphodiesterase (PDE) 10A, sequence (Q9Y233 whole entry): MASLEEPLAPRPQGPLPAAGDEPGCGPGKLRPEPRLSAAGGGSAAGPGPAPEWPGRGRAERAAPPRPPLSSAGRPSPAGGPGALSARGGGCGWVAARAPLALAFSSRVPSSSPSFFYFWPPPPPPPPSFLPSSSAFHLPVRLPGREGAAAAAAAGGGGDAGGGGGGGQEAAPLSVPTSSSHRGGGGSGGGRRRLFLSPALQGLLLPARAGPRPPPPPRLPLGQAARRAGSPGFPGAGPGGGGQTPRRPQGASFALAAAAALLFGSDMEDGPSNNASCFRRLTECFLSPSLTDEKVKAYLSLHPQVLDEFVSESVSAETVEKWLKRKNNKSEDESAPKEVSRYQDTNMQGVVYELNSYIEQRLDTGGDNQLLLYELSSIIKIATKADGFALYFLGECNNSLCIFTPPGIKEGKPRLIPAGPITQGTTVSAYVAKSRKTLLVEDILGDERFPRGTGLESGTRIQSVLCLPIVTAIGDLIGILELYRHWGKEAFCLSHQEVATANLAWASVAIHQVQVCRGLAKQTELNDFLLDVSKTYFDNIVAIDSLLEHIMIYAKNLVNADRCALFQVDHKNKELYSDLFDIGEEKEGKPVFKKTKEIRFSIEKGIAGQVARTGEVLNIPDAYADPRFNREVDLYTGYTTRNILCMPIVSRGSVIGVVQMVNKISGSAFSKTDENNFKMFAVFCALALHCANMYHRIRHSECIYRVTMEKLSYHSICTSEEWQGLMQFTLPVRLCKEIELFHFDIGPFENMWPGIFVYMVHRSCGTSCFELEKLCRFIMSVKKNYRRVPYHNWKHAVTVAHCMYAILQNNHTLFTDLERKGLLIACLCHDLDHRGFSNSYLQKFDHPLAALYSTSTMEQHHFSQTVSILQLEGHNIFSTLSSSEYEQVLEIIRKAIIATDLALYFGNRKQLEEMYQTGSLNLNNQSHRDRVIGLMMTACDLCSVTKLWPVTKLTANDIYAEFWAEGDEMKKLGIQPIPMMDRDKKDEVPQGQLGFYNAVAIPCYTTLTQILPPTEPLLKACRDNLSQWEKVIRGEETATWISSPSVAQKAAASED
PDE10 from guinea pig striatum, sequence (A0A286XN47 1-773): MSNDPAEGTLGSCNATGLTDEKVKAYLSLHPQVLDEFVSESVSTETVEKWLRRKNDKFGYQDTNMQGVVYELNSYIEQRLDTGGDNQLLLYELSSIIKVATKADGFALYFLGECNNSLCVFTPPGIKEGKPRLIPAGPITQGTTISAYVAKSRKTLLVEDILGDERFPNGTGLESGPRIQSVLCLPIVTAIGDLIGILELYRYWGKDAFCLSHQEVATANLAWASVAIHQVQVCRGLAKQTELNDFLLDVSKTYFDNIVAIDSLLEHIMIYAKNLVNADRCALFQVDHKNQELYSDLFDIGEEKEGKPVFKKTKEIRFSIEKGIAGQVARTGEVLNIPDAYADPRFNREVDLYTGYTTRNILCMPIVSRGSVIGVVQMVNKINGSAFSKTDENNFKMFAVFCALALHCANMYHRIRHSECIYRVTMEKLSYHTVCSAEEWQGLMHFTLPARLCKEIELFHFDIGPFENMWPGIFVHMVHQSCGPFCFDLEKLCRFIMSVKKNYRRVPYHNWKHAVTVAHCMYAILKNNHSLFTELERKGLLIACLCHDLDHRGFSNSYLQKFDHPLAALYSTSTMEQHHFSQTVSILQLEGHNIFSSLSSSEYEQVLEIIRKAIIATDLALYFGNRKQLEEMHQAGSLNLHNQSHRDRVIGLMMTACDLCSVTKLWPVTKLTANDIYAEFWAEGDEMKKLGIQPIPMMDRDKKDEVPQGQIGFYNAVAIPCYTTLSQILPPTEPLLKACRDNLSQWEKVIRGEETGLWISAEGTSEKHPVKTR

Regarding `COc1ccc(Cl)c(-c2nc(C)c3c(C)nc4ccc(OC)nc4n23)c1` [Example 19, 9-(2-Chloro-5-methoxyphenyl)-2-methoxy-6,7-dimethylimidazo[1,5-a]pyrido[3,2-e]pyrazine], the pIC50 on PDE10 from pig striatum (setting [6]) was above 8.00. Also, on human recombinant PDE10A, the IC50 was in the range of 10 to 100 nM.

In the case of `COc1ccc2nc(C)c3c(C)nc(-c4ccc(C(F)(F)F)cc4Cl)n3c2n1` [Example 20, 9-[2-Chloro-4-(trifluoromethyl)phenyl]-2-methoxy-6,7-dimethylimidazo[1,5-a]pyrido[3,2-e]pyrazine], on PDE10 from pig striatum (setting [6]), the pIC50 was above 8.00. For the same compound, at human recombinant PDE10A, the IC50 is below 10 nM.

On to `COc1ccc2nc(C)c3c(C)nc(-c4cc(C)ccc4F)n3c2n1` [Example 21, 9-(2-Fluoro-5-methylphenyl)-2-methoxy-6,7-dimethylimidazo[1,5-a]pyrido[3,2-e]pyrazine], for which the pIC50 on PDE10 from pig striatum (setting [6]) was above 8.00. Besides, the IC50 on human recombinant PDE10A lay within 10 to 100 nM.

Consider `COc1ccc2nc(C)c3c(C)nc(-c4cc(C(F)(F)F)ccc4Cl)n3c2n1` [Example 23, 9-[2-Chloro-5-(trifluoromethyl)phenyl]-2-methoxy-6,7-dimethylimidazo[1,5-a]pyrido[3,2-e]pyrazine], for which the pIC50 on PDE10 from pig striatum (setting [6]) was above 8.00. The concentration for half-maximal inhibition (IC50) at human recombinant PDE10A is below 10 nM.

As for `COc1ccc2nc(C)c3c(C)nc(-c4cc(OC(F)(F)F)ccc4Cl)n3c2n1` [Example 24, 9-[2-Chloro-5-(trifluoromethoxy)phenyl]-2-methoxy-6,7-dimethylimidazo[1,5-]pyrido[3,2-e]pyrazine], the pIC50 on PDE10 from pig striatum (setting [6]) is 7.00 to 8.00. For the same compound, at human recombinant PDE10A, the IC50 lay within 10 to 100 nM.

With `COc1ccc2nc(C)c3c(C)nc(-c4cc(C#N)ccc4Cl)n3c2n1` [Example 25, 4-Chloro-3-(2-methoxy-6,7-dimethylimidazo[1,5-a]pyrido[3,2-e]pyrazin-9-yl)benzonitrile], the pIC50 at PDE10 from pig striatum (setting [6]) was above 8.00. Moreover, at human recombinant PDE10A, the IC50 lay in the range of 10 to 100 nM.

On to `CCOc1ccc(Cl)c(-c2nc(C)c3c(C)nc4ccc(OC)nc4n23)c1` [Example 26, 9-(2-Chloro-5-ethoxyphenyl)-2-methoxy-6,7-dimethylimidazo[1,5-a]pyrido[3,2-e]pyrazine], for which the pIC50 at PDE10 from pig striatum (setting [6]) was 7.00 to 8.00. For the same compound, at human recombinant PDE10A, the IC50 was 10 to 100 nM.

Take `COc1ccc(Cc2nccc3cc(OC)c(OC)cc23)cc1OC` [Papaverine, papaverine]: the apomorphine-induced stereotypes result in test [1] is “reduces apomorphine-induced stereotypes in rats”. For the same compound, the haloperidol-induced catalepsy entry in test [2] is given as “increases haloperidol-induced catalepsy in rats”. Besides, the pIC50 was 7.11 in test [3]; 6.99 against PDE10 from pig striatum (Method A, PDE10 from striatum of pig); 6.96 at PDE10 from pig striatum (Method B, PDE10 from striatum of pig, read-out: IC50). Besides, the “dopamine concentration in rat brain” value in test [4] is on record as “reducing dopamine concentration in rat brain”.

For the compound `Nc1nc2c(ncn2[C@@H]2O[C@@H]3COP(=O)(O)O[C@H]3[C@H]2O)c(=O)[nH]1` [cGMP], the Michaelis constant (Km) was 3 µM in test [5]; 1.8 µM on PDE10 from rat striatum; 2.2 µM on PDE10 from pig striatum (Method B, pig striatum, read-out: Km-value for the substrate).

Source of the values: patent US20090143361A1, “Pyrido[3,2-E]Pyrazines, Process For Preparing The Same, And Their Use As Inhibitors Of Phosphodiesterase 10” (ELBION GMBH, priority 2007, published 2009).
